Experimental data taken from US20110172217A1, “RING-FUSED MORPHOLINE DERIVATIVE HAVING PI3K-INHIBITING ACTIVITY” (Shionogi & Co., Ltd., priority 2008, published 2011).

The compounds below were run against PI-3 kinase γ (Homo sapiens, UniProt P48736) (assay: PI3Kγ inhibitory activity, PI3-kinase HTRF assay (inhibition ratio)). Settings: 0.5 h, compound at 50 μmol/L.
Type: biochemical
Protocol: For each compound synthesized in the above Examples, PI3Kγ inhibitory activity was measured.
The PI3Kγ inhibitory activity of a compound was evaluated using PI3-kinase HTRF™ assay (Millipore) according to the following procedure:
To each well of a testing plate, 5 μL of a compound solution containing 10% DMSO (200 μmol/L or 40 μmol/L as the concentration of the compound), 5 μL of a substrate solution (40 μmol/L phosphatidylinositol (4,5)-bisphosphate, 20 mmol/L MgCl2, 10 mmol/L DTT), and 5 μL of a enzyme solution (80 μg/mL PI-3 kinase γ, 10 mmol/L MgCl2, 5 mmol/L DTT) were added, and then allowed to stand for 10 minutes.
Then, 5 μL of a reaction solution (40 μmol/L ATP, 10 mmol/L MgCl2, 5 mmol/L DTT) was added thereto. After reacting for 30 minutes at room temperature, 5 μL of a solution containing EDTA and biotinylated phosphatidylinositol (3,4,5)-triphosphate were added to quench the reaction.
5 μL of a detection reagent containing a europium-labeled anti-GST antibody, the GST-tagged PH domain, and allophycocyanin-labeled streptavidin was added thereto. After 18 hours, HTRF (excitation wavelength: 330 nm, measured wavelengths: 620 nm and 665 nm) was measured.
HTRF ratio was defined as the value obtained by dividing the amount of fluorescence obtained at the measured wavelength 665 nm by the amount of fluorescence obtained at 620 nm. The HTRF ratio in the absence of a compound was defined as 100% activity and the HTRF ratio in the absence of PI-3 kinase γ was defined as 0% activity to calculate an inhibition ratio which was defined as the PI3Kγ inhibitory activity of a compound at 50 μmol/L or 10 μmol/L.

Chain of PI-3 kinase γ (P48736 whole entry): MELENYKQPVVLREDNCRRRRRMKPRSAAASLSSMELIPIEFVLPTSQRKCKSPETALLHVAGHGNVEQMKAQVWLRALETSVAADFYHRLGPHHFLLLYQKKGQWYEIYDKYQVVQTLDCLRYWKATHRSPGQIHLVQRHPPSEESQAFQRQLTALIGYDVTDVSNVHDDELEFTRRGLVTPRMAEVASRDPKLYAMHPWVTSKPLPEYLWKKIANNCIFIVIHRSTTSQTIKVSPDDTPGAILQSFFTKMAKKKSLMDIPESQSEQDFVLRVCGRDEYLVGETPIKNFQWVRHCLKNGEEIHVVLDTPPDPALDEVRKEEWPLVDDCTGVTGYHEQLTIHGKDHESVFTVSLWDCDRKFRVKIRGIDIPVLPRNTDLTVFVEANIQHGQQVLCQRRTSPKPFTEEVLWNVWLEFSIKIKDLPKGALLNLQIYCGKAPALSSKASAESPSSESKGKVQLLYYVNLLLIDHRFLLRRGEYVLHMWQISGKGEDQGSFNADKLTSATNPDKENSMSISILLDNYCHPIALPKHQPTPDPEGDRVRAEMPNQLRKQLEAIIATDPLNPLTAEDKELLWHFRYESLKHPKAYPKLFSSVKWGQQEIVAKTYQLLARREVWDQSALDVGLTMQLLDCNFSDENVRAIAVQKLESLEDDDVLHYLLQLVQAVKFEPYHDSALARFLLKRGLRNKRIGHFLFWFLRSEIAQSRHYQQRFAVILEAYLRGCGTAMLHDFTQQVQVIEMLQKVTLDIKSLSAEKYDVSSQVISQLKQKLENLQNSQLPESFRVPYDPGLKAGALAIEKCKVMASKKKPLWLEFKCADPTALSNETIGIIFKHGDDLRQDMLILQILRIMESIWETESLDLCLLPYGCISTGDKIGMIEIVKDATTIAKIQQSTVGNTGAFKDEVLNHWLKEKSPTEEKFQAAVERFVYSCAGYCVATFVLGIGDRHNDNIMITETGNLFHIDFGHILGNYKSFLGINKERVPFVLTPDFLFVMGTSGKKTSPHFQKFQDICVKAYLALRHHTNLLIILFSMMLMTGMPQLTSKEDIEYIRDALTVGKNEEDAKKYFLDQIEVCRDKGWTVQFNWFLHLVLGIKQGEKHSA

Row | Compound | inhibition at 50 µM [%]
1 | CC(C)(C)OC(=O)NCCOc1ccc(Nc2ccc3c(n2)N(C(=O)Nc2ccccc2)CCO3)cc1 [Compound I-214] | ≥ 95
2 | CC(C)(C)OC(=O)NCCOc1ccccc1Nc1ccc2c(n1)N(C(=O)Nc1ccccc1)CCO2 [Compound I-215] | ≥ 95
3 | CC(C)(C)OC(=O)NCCOc1cccc(Nc2ccc3c(n2)N(C(=O)Nc2ccccc2)CCO3)c1 [Compound I-219] | ≥ 95
4 | NCCOc1ccc(Nc2ccc3c(n2)N(C(=O)Nc2ccccc2)CCO3)cc1 [Compound I-221] | ≥ 95
5 | CC(C)(C)OC(=O)N1CCC(Nc2ccc3c(n2)N(C(=O)Nc2ccccc2)CCO3)CC1 [Compound I-231] | ≥ 95
6 | CC(C)(C)OC(=O)COc1cccc(Nc2cnc3c(c2)OCCN3C(=O)Nc2ccccc2)c1 [Compound I-234] | ≥ 95
7 | CC(C)(C)OC(=O)COc1ccc(Nc2cnc3c(c2)OCCN3C(=O)Nc2ccccc2)cc1 [Compound I-237] | ≥ 95
8 | CCOC(=O)CNC(=O)Nc1cnc2c(c1)OCCN2C(=O)Nc1ccccc1 [Compound I-238] | 83
9 | CC(C)(C)OC(=O)N1CCN(c2cnc3c(c2)OCCN3C(=O)Nc2ccccc2)CC1 [Compound I-244] | 80
10 | CC(C)(C)OC(=O)N1CCN(c2cnc3c(c2)OCCN3C(=O)Nc2ccccc2)CC1C(=O)O (centres unmarked) [Compound I-245] | ≥ 95
11 | O=C(Nc1ccccc1)N1CCOc2cc(N3CCNCC3)cnc21 [Compound I-246] | ≥ 95
12 | O=C(Nc1ccccc1)N1CCOc2cc(-c3ccnn3C3CCCCO3)cnc21 (centres unmarked) [Compound I-250] | 91
13 | O=C(Nc1ccccc1)N1CCOc2cc(-c3cn[nH]c3)cnc21 [Compound I-251] | ≥ 95
14 | O=C(O)c1ccc(-c2ccc3c(n2)OCCN3C(=O)Nc2ccccc2C(=O)O)cc1 [Compound I-259] | ≥ 95
15 | O=C(Nc1ccccc1)N1CCOc2cc(-c3cc[nH]n3)cnc21 [Compound I-269] | 71
16 | O=C(Nc1cccnc1)N1CCOc2cc(Nc3ccccc3)cnc21 [Compound I-271] | ≥ 95
17 | O=C(Nc1ccccc1)N1CCOc2cc(-c3ccc[nH]3)cnc21 [Compound I-274] | ≥ 95
18 | O=C(O)Cn1cc(-c2cnc3c(c2)OCCN3C(=O)Nc2ccccc2)cn1 [Compound I-280] | 88

Row | Compound | inhibition at 50 µM [%]
19 | O=C(Nc1ccccc1)N1CCOc2cc(-c3cc4ccccc4[nH]3)cnc21 [Compound I-282] | 74
20 | CC(C)(C)OC(=O)n1c(-c2cnc3c(c2)OCCN3C(=O)Nc2ccccc2)cc2ccccc21 [Compound I-283] | 85
21 | O=C(Nc1ccccc1)N1CCOc2cc(-c3cnn(CCN4CCOCC4)c3)cnc21 [Compound I-293] | ≥ 95
22 | COc1ccc2cc(-c3cnc4c(c3)OCCN4C(=O)Nc3ccccc3)[nH]c2c1 [Compound I-302] | 87
23 | CC(C)(C)OC(=O)CCNC(=O)c1cnc2c(c1)OCCN2C(=O)Nc1ccccc1 [Compound I-305] | 84
24 | O=C(O)CCNC(=O)c1cnc2c(c1)OCCN2C(=O)Nc1ccccc1 [Compound I-307] | 92
25 | O=C(Nc1ccccc1)N1CCOc2cc(Nc3ccc(F)cc3Cl)cnc21 [Compound I-309] | 90
26 | CCN(CC)c1ccc(Nc2cnc3c(c2)OCCN3C(=O)Nc2ccccc2)cc1 [Compound I-310] | ≥ 95
27 | CCCCNS(=O)(=O)c1cccc(Nc2cnc3c(c2)OCCN3C(=O)Nc2ccccc2)c1 [Compound I-311] | 81
28 | C#Cc1cccc(Nc2cnc3c(c2)OCCN3C(=O)Nc2ccccc2)c1 [Compound I-314] | 78
29 | CC(C)(C)NC(=O)c1ccccc1Nc1cnc2c(c1)OCCN2C(=O)Nc1ccccc1 [Compound I-315] | 93
30 | O=C(Nc1ccccc1)N1CCOc2cc(Nc3ccc4ncccc4c3)cnc21 [Compound I-316] | 87
31 | O=C(Nc1ccccc1)N1CCOc2cc(Nc3ccc4ncsc4c3)cnc21 [Compound I-317] | ≥ 95
32 | N#Cc1ccc(Nc2cnc3c(c2)OCCN3C(=O)Nc2ccccc2)cc1 [Compound I-318] | ≥ 95
33 | O=C(Nc1ccccc1)N1CCOc2cc(Nc3ccc4c(c3)CCO4)cnc21 [Compound I-320] | 95
34 | COC(=O)c1ccc(-c2ccc(Nc3cnc4c(c3)OCCN4C(=O)Nc3ccccc3)cc2)cc1 [Compound I-321] | 76
35 | O=C(Nc1ccccc1)N1CCOc2cc(Nc3ccc(Oc4ccccc4)cc3)cnc21 [Compound I-322] | 78
36 | O=C(Nc1ccccc1)N1CCOc2cc(Nc3ccc(S(=O)(=O)N4CCOCC4)cc3)cnc21 [Compound I-323] | 89

The next lines start with the values.

Row | inhibition at 50 µM [%] | Compound
37 | ≥ 95 | CCOC(=O)Cc1ccc(Nc2ccc3c(n2)N(C(=O)Nc2ccccc2)CCO3)cc1 [Compound I-212]
38 | ≥ 95 | CC(C)(C)OC(=O)COc1ccc(Nc2ccc3c(n2)N(C(=O)Nc2ccccc2)CCO3)cc1 [Compound I-213]
39 | ≥ 95 | COC(=O)c1ccc(Nc2ccc3c(n2)N(C(=O)Nc2ccccc2)CCO3)c(OCCNC(=O)OC(C)(C)C)c1 [Compound I-216]
40 | 77 | COC(=O)c1ccc(O)c(Nc2ccc3c(n2)N(C(=O)Nc2ccccc2)CCO3)c1 [Compound I-217]
41 | 87 | COCOc1ccc(C(=O)O)cc1NC(=O)c1ccc2c(n1)N(C(=O)Nc1ccccc1)CCO2 [Compound I-218]
42 | ≥ 95 | O=C(O)C1CCN(c2ccc3c(n2)N(C(=O)Nc2ccccc2)CCO3)CC1 [Compound I-220]
43 | ≥ 95 | NCCOc1cccc(Nc2ccc3c(n2)N(C(=O)Nc2ccccc2)CCO3)c1 [Compound I-222]
44 | ≥ 95 | NCCOc1ccccc1Nc1ccc2c(n1)N(C(=O)Nc1ccccc1)CCO2 [Compound I-223]
45 | ≥ 95 | O=C(O)COc1ccc(Nc2ccc3c(n2)N(C(=O)Nc2ccccc2)CCO3)cc1 [Compound I-224]
46 | ≥ 95 | O=C(O)Cc1ccc(Nc2ccc3c(n2)N(C(=O)Nc2ccccc2)CCO3)cc1 [Compound I-225]
47 | ≥ 95 | CC(C)(C)OC(=O)NCCOc1cc(C(=O)O)ccc1Nc1ccc2c(n1)N(C(=O)Nc1ccccc1)CCO2 [Compound I-226]
48 | ≥ 95 | NCCOc1cc(C(=O)O)ccc1Nc1ccc2c(n1)N(C(=O)Nc1ccccc1)CCO2 [Compound I-227]
49 | ≥ 95 | COC(=O)c1ccc(Nc2ccc3c(n2)N(C(=O)Nc2ccccc2)CCO3)cc1 [Compound I-229]
50 | ≥ 95 | Cc1cc(C(=O)O)ccc1-c1ccc2c(n1)N(C(=O)Nc1ccccc1)CCO2 [Compound I-230]
51 | ≥ 95 | COC(=O)c1cccc(Nc2ccc3c(n2)N(C(=O)Nc2ccccc2)CCO3)c1 [Compound I-232]
52 | ≥ 95 | CC(C)(C)OC(=O)COc1cccc(Nc2ccc3c(n2)N(C(=O)Nc2ccccc2)CCO3)c1 [Compound I-233]

Row | inhibition at 50 µM [%] | Compound
53 | ≥ 95 | O=C(O)COc1cccc(Nc2cnc3c(c2)OCCN3C(=O)Nc2ccccc2)c1 [Compound I-241]
54 | ≥ 95 | CC(C)(C)OC(=O)COc1ccccc1Nc1ccc2c(n1)N(C(=O)Nc1ccccc1)CCO2 [Compound I-242]
55 | 77 | COC(=O)c1ccc(N(C)c2cnc3c(c2)OCCN3C(=O)Nc2ccccc2)cc1 [Compound I-243]
56 | ≥ 95 | COC(=O)c1cncc(-c2ccc3c(n2)N(C(=O)Nc2ccccc2)CCO3)c1 [Compound I-249]
57 | ≥ 95 | O=C(O)COc1ccc(Nc2cnc3c(c2)OCCN3C(=O)Nc2ccccc2)cc1 [Compound I-252]
58 | 75 | COc1cccc(NC(=O)N2CCOc3nc(-c4ccc(C(=O)O)cc4)ccc32)c1 [Compound I-265]
59 | ≥ 95 | CC(C)(C)OC(=O)CNC(=O)c1cccc(Nc2ccc3c(n2)N(C(=O)Nc2ccccc2)CCO3)c1 [Compound I-272]
60 | 76 | CC(C)(C)OC(=O)CNC(=O)c1ccc(Nc2ccc3c(n2)N(C(=O)Nc2ccccc2)CCO3)cc1 [Compound I-273]
61 | ≥ 95 | O=C(O)CNC(=O)c1cccc(Nc2ccc3c(n2)N(C(=O)Nc2ccccc2)CCO3)c1 [Compound I-277]
62 | ≥ 95 | O=C(O)CNC(=O)c1ccc(Nc2ccc3c(n2)N(C(=O)Nc2ccccc2)CCO3)cc1 [Compound I-278]
63 | 82 | CN(c1ccc(C(=O)O)cc1)c1ccc2c(n1)N(C(=O)Nc1ccccc1)CCO2 [Compound I-284]
64 | 88 | O=C(O)c1ccc(-c2cnc3c(c2)OCCN3C(=O)Nc2ccccc2)s1 [Compound I-285]
65 | 86 | CC1CN(C(=O)Nc2ccccc2)c2nc(-c3ccc(C(=O)O)cc3)ccc2O1 (centres unmarked) [Compound I-290]
66 | 89 | CNC(=O)c1cnc2c(c1)OCCN2C(=O)Nc1ccccc1 [Compound I-303]
67 | 92 | COc1ccc(Nc2cnc3c(c2)OCCN3C(=O)Nc2ccccc2)cc1 [Compound I-313]
68 | 92 | Cc1ccc(Nc2cnc3c(c2)OCCN3C(=O)Nc2ccccc2)cc1F [Compound I-319]
